Patent publication US20250144127A1, “LONG-CHAIN COMPOUND AND USE THEREOF” (Burgeon Therapeutics Co., Ltd., priority 2021, published 2025)

Experiments:
[1] = test system: primary hepatocytes from WT mice; test: De novo lipid synthesis in WT primary hepatocytes, [14C]-citric acid tracer; format: cell-based; details: WT mouse hepatocytes, [14C]-citric acid substrate
ApoE−/− mice = test: Atherosclerosis in ApoE-/- mice on high cholesterol chow, aortic plaque Sudan IV staining; format: in vivo, mouse
Experimental: Dosing regimen: Hypercholesterolemia is an important trigger for the development of atherosclerosis. […] The specific scheme is as follows. 60 ApoE^−/− mice, males, were equally divided into 6 groups (n=10), of which 5 groups were fed with high cholesterol chow (Research diet, item no. D12079B) for modeling, and 1 group was set aside as a blank control group, while long-term administration of the drug was carried out, i.e., the model control group, the positive control ETC-1002 30 mg/kg group, and the compounds A3 15 mg/kg and 30 mg/kg and 60 mg/kg groups, and blank control group. The compounds in each group were configured with saline (0.9% NaCl) and administered at a frequency of 1 time/day for a 24-week dosing cycle.
Indicator test: The body weight and food intake of ApoE^−/− mice were closely monitored during the administration period. After 24 weeks of compound administration in each group, the aortic vessels of mice were stripped and Sudan IV staining of aortic plaques was performed, and the plaque area was counted with Image-Pro Plus software.

[2] = test system: ACLY knockdown primary hepatocytes; test: De novo lipid synthesis in ACLY knockdown primary hepatocytes, [14C]-citric acid tracer; format: cell-based, mouse; details: [14C]-citric acid substrate
Source text: Test protocol: In order to further investigate the dependence of the inhibitory effect of the series of compounds on de novo lipid synthesis on ACLY, the inventors chose ACLY knockdown primary hepatocytes for further evaluation of de novo lipid synthesis, while compound ETC-1002 was used as a positive control. Specifically, the experimental protocol was as above, and 0.1 μCi/well [^14C]-citric acid was used for tracing.

ob/ob mice = test: NASH induced by high-fat, high-sugar, high-cholesterol diet in ob/ob mice; format: in vivo, mouse; details: 30 mg/kg, 1 time/day, 10 weeks
Experimental: Dosing regimen: 16 ob/ob mice, males, 7-8 weeks, were equally divided into 2 groups (n=8) and fed with high-fat, high-sugar, high-cholesterol diet (Research diet, item number D09100310) for 8 weeks for modeling, and a group of wild-type mice from the same litter was set up as a blank control group. Long-term drug administration was started after 8 weeks of modeling and the groups were model control group, compound A3 30 mg/kg group, and blank control group. The compounds in each group were prepared in saline (0.9% NaCl) and administered at a frequency of 1 time/day for 10 weeks.
Indicator test: The body weight and feeding changes of ob/ob mice and blank control mice were closely monitored during the administration period. After 10 weeks of administration, the livers of each group were taken and tested for NASH indicators (HE staining, Sirius red staining, immunohistochemistry for inflammatory signals, etc.).

CC(C)(CCCC/C=C/CCCCCC(C)(C)C(=O)O)C(=O)O [Compound A3]
de novo synthesis of triglycerides ([1]; FIG. 1 A): significantly inhibited | de novo synthesis of cholesterol ([1]; FIG. 1 B): significantly inhibited | area of aortic plaque (ApoE−/− mice; 15, 30 and 60 mg/kg groups, 1 time/day, 24 weeks, vs control group): significantly reduced | improving atherosclerosis compared with ETC-1002 (ApoE−/− mice; statement on previous studies): significantly better than ETC-1002 | inhibitory effect on de novo synthesis of cholesterol [2]: significantly attenuated or even the inhibitory effect was not manifested | inhibitory effect on de novo synthesis of triglycerides [2]: significantly attenuated or even the inhibitory effect was not manifested | liver whitening and granulomatous sensation due to excessive lipid accumulation (ob/ob mice): significantly reversed | degree of hepatic collagen deposition (Sirius red staining) (ob/ob mice; vs model control): significantly reduced | hepatic inflammatory cell infiltration (macrophage CD68 staining) (ob/ob mice; vs model control): significantly reduced | liver steatosis and ballooning (H & E staining) (ob/ob mice; vs model control): significantly reduced
